Measurements from patent publication US10736883B2, “Triazole furan compounds as agonists of the APJ receptor” (AMGEN INC., priority 2016, dated 2020).

Biological target: APJ receptor (Homo sapiens (Human), UniProt P35414)
Assay: [35S]GTPγS binding assay on membranes from CHO cells stably expressing human APJ receptor
Format: biochemical
Conditions: membranes of CHO cells stably expressing human APJ receptor, means of several independent experiments, read-out: Activity hAPJ SPA EC50 IP
Experimental: The human APJ receptor was cloned by polymerase chain reaction and the gene encoding the receptor was subcloned in pFLAG-CMV™-3 expression vector (Sigma, Saint Louis, Mo. USA) in-house at Amgen. A GTPγS binding assay was performed on membranes prepared from CHO cells stably expressing human APJ receptor. The optimum experimental conditions for the concentrations of GDP, MgCl2, and NaCl in the assay buffer were initially determined. The assay was performed in assay buffer [20 mM HEPES, pH 7.5, 5 mM MgCl2, and 0.1% (w/v) BSA with 200 mM NaCl, 3 μM GDP] and membranes expressing human APJ receptor/well along with WGA PS beads. The reaction was initiated by addition of 0.2 nM [^35S]GTPγS (Perkin Elmer Life and Analytical Sciences, Waltham USA) in the absence or presence of various ligands and incubated at RT for 90 min. Nonspecific binding was determined in the presence of 100 μM GTPγS and was always less than 0.2% of total binding. All the results presented are means of several independent experiments and analyzed by non-linear regression methods using commercially available program Prism (GraphPad, San Diego, Calif.) to obtain EC50 detailed in Table 26.

Chain of APJ receptor (P35414 whole entry): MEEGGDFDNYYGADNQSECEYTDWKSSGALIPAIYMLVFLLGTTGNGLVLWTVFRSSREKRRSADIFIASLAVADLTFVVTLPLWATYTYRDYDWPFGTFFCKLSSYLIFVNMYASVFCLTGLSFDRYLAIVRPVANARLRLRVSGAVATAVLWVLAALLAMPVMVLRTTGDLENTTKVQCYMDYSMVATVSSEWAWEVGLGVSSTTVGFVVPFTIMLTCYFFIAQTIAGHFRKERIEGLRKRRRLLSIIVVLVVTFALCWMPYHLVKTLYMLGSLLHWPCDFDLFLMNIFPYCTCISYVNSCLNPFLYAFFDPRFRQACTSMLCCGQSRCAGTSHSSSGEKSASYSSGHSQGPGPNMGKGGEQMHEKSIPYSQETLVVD

SMILES | EC50 [nM]
COCC[C@@H](Cc1ncc(C)cn1)S(=O)(=O)Nc1nnc(-c2ccc(C)o2)n1-c1c(OC)cccc1OC (racemic) [Example 76.0, (2R)—N-(4-(2,6-dimethoxyphenyl)-5-(5-methyl-2-furanyl)-4H-1,2,4-triazol-3-yl)-4-methoxy-1-(5-methyl-2-pyrimidinyl)-2-butanesulfonamide and (2S)—N-(4-(2,6-dimethoxyphenyl)-5-(5-methyl-2-furanyl)-4H-1,2,4-triazol-3-yl)-4-methoxy-1-(5-methyl-2-pyrimidinyl)-2-butanesulfonamide] | 0.6
COc1cccc(OC)c1-n1c(NS(=O)(=O)[C@@H](CCO)[C@H](C)c2ncc(C)cn2)nnc1-c1ccc(C)o1 (racemic) [Example 77.0] | 0.77
COc1cccc(OC)c1-n1c(NS(=O)(=O)[C@H](C)[C@H](O)c2oc(C)nc2C)nnc1-c1ccc(C)o1 (racemic) [Example 82.0] | 18
COc1cccc(OC)c1-n1c(NS(=O)(=O)[C@H](C)[C@@H](O)c2ccc(C#N)c(C)n2)nnc1-c1ccc(C)o1 (racemic) [Example 88.0] | 0.51
COc1cccc(OC)c1-n1c(NS(=O)(=O)[C@@H](C)Cc2ncc(F)cn2)nnc1-c1ccc(C)o1 (racemic) [Example 94.0, (2S)—N-(4-(2,6-Dimethoxyphenyl)-5-(5-methyl-2-furanyl)-4H-1,2,4-triazol-3-yl)-1-(5-fluoro-2-pyrimidinyl)-2-propanesulfonamide and (2R)—N-(4-(2,6-dimethoxyphenyl)-5-(5-methyl-2-furanyl)-4H-1,2,4-triazol-3-yl)-1-(5-fluoro-2-pyrimidinyl)-2-propanesulfonamide] | 0.17
COc1cccc(OC)c1-n1c(NS(=O)(=O)[C@H](C)[C@@H](O)c2ncc(F)cn2)nnc1-c1ccc(C)o1 (racemic) [Example 96.0, (1R,2S)—N-(4-(2,6-Dimethoxyphenyl)-5-(5-methyl-2-furanyl)-4H-1,2,4-triazol-3-yl)-1-(5-fluoro-2-pyrimidinyl)-1-hydroxy-2-propanesulfonamide and (1S,2R)—N-(4-(2,6-dimethoxyphenyl)-5-(5-methyl-2-furanyl)-4H-1,2,4-triazol-3-yl)-1-(5-fluoro-2-pyrimidinyl)-1-hydroxy-2-propanesulfonamide] | 0.34
COc1cccc(OC)c1-n1c(NS(=O)(=O)C[C@@H](C)c2ncc(F)cn2)nnc1-c1ccc(C)o1 (racemic) [Example 127.0, (S)—N-(4-(2,6-Dimethoxyphenyl)-5-(5-methylfuran-2-yl)-4H-1,2,4-triazol-3-yl)-2-(5-fluoropyrimidin-2-yl)propane-1-sulfonamide and (R)—N-(4-(2,6-dimethoxyphenyl)-5-(5-methylfuran-2-yl)-4H-1,2,4-triazol-3-yl)-2-(5-fluoropyrimidin-2-yl)propane-1-sulfonamide] | 0.65
COc1cccc(OC)c1-n1c(NS(=O)(=O)[C@@H](C)[C@H](C)c2ncc(F)cn2)nnc1-c1ccc(C)o1 (racemic) [Example 135.0] | 16
COC[C@@H]1CCCC(=O)N1C[C@H](C)S(=O)(=O)Nc1nnc(-c2ccc(C)o2)n1-c1c(OC)cccc1OC (racemic) [Example 151.0] | 0.24
COc1cccc(OC)c1-n1c(NS(=O)(=O)[C@H]2COC[C@@H]2c2ncc(F)cn2)nnc1-c1ccco1 (racemic) [Example 180.0, (3R,4S)—N-(4-(2,6-Dimethoxyphenyl)-5-(2-furanyl)-4H-1,2,4-triazol-3-yl)-4-(5-fluoro-2-pyrimidinyl)tetrahydro-3-furansulfonamide and (3S,4R)—N-(4-(2,6-dimethoxyphenyl)-5-(2-furanyl)-4H-1,2,4-triazol-3-yl)-4-(5-fluoro-2-pyrimidinyl)tetrahydro-3-furansulfonamide] | 3.6
COc1cccc(OC)c1-n1c(NS(=O)(=O)[C@H]2COc3cc(Cl)cnc3C2)nnc1-c1ccco1 (racemic) [Example 181.0, (3R)-7-Chloro-N-(4-(2,6-dimethoxyphenyl)-5-(2-furanyl)-4H-1,2,4-triazol-3-yl)-3,4-dihydro-2H-pyrano[3,2-b]pyridine-3-sulfonamide and (3S)-7-chloro-N-(4-(2,6-dimethoxyphenyl)-5-(2-furanyl)-4H-1,2,4-triazol-3-yl)-3,4-dihydro-2H-pyrano[3,2-b]pyridine-3-sulfonamide] | 5.9
COc1cccc(OC)c1-n1c(NS(=O)(=O)[C@@H](C)[C@@H](C)c2ncc(F)cn2)nnc1-c1ccco1 (racemic) [Example 218.0, (2R,3R)—N-(4-(2,6-dimethoxyphenyl)-5-(2-furanyl)-4H-1,2,4-triazol-3-yl)-3-(5-fluoro-2-pyrimidinyl)-2-butanesulfonamide and (2S,3S)—N-(4-(2,6-dimethoxyphenyl)-5-(2-furanyl)-4H-1,2,4-triazol-3-yl)-3-(5-fluoro-2-pyrimidinyl)-2-butanesulfonamide] | 0.25
COc1cccc(OC)c1-n1c(NS(=O)(=O)C[C@@](C)(F)c2ncc(C#N)cn2)nnc1-c1ccc(C)o1 (racemic) [Example 229.0, (2S)-2-(5-Cyano-2-pyrimidinyl)-N-(4-(2,6-dimethoxyphenyl)-5-(5-methyl-2-furanyl)-4H-1,2,4-triazol-3-yl)-2-fluoro-1-propanesulfonamide and (2R)-2-(5-cyano-2-pyrimidinyl)-N-(4-(2,6-dimethoxyphenyl)-5-(5-methyl-2-furanyl)-4H-1,2,4-triazol-3-yl)-2-fluoro-1-propanesulfonamide] | 0.39
COc1cccc(OC)c1-n1c(NS(=O)(=O)[C@@H](C)Cc2ncc(F)c(C)n2)nnc1-c1ccco1 (racemic) [Example 234.0, (2S)—N-(4-(2,6-Dimethoxyphenyl)-5-(2-furanyl)-4H-1,2,4-triazol-3-yl)-1-(5-fluoro-4-methyl-2-pyrimidinyl)-2-propanesulfonamide and (2R)—N-(4-(2,6-dimethoxyphenyl)-5-(2-furanyl)-4H-1,2,4-triazol-3-yl)-1-(5-fluoro-4-methyl-2-pyrimidinyl)-2-propanesulfonamide] | 0.54
COc1cccc(OC)c1-n1c(NS(=O)(=O)[C@H](C)[C@@H](OC)c2cn3ccccc3n2)nnc1-c1ccc(C)o1 (racemic) [Example 264.0, (1R,2S)—N-(4-(2,6-Dimethoxyphenyl)-5-(5-methyl-2-furanyl)-4H-1,2,4-triazol-3-yl)-1-imidazo[1,2-a]pyridin-2-yl-1-methoxy-2-propanesulfonamide and (1S,2R)—N-(4-(2,6-dimethoxyphenyl)-5-(5-methyl-2-furanyl)-4H-1,2,4-triazol-3-yl)-1-imidazo[1,2-a]pyridin-2-yl-1-methoxy-2-propanesulfonamide] | 0.167
COc1cccc(OC)c1-n1c(NS(=O)(=O)[C@H](C)[C@@H](O)c2cn3ccccc3n2)nnc1-c1ccc(C)o1 (racemic) [Example 269.0, (1R,2S)—N-(4-(2,6-Dimethoxyphenyl)-5-(5-methyl-2-furanyl)-4H-1,2,4-triazol-3-yl)-1-hydroxy-1-imidazo[1,2-a]pyridin-2-yl-2-propanesulfonamide and (1S,2R)—N-(4-(2,6-dimethoxyphenyl)-5-(5-methyl-2-furanyl)-4H-1,2,4-triazol-3-yl)-1-hydroxy-1-imidazo[1,2-a]pyridin-2-yl-2-propanesulfonamide] | 0.49
COc1cccc(OC)c1-n1c(NS(=O)(=O)[C@H](C)[C@@H](O)c2cn(C)cn2)nnc1-c1ccc(C)o1 (racemic) [Example 283.0, (1R,2S)—N-(4-(2,6-Dimethoxyphenyl)-5-(5-methyl-2-furanyl)-4H-1,2,4-triazol-3-yl)-1-hydroxy-1-(1-methyl-1H-imidazol-4-yl)-2-propanesulfonamide and (1S,2R)—N-(4-(2,6-dimethoxyphenyl)-5-(5-methyl-2-furanyl)-4H-1,2,4-triazol-3-yl)-1-hydroxy-1-(1-methyl-1H-imidazol-4-yl)-2-propanesulfonamide] | 1.4
COc1cccc(OC)c1-n1c(NS(=O)(=O)[C@H](C)[C@@H](O)c2coc(C)n2)nnc1-c1ccc(C)o1 (racemic) [Example 284.0, (1R,2S)—N-(4-(2,6-Dimethoxyphenyl)-5-(5-methyl-2-furanyl)-4H-1,2,4-triazol-3-yl)-1-hydroxy-1-(2-methyl-1,3-oxazol-4-yl)-2-propanesulfonamide and (1S,2R)—N-(4-(2,6-dimethoxyphenyl)-5-(5-methyl-2-furanyl)-4H-1,2,4-triazol-3-yl)-1-hydroxy-1-(2-methyl-1,3-oxazol-4-yl)-2-propanesulfonamide] | 1.6
COc1cccc(OC)c1-n1c(NS(=O)(=O)[C@H](C)[C@H](O)c2cn3ccccc3n2)nnc1-c1ccc(C)o1 (racemic) [Example 285.0, (1R,2R)—N-(4-(2,6-Dimethoxyphenyl)-5-(5-methyl-2-furanyl)-4H-1,2,4-triazol-3-yl)-1-hydroxy-1-imidazo[1,2-a]pyridin-2-yl-2-propanesulfonamide and (1S,2S)—N-(4-(2,6-dimethoxyphenyl)-5-(5-methyl-2-furanyl)-4H-1,2,4-triazol-3-yl)-1-hydroxy-1-imidazo[1,2-a]pyridin-2-yl-2-propanesulfonamide] | 2.5
COc1cccc(OC)c1-n1c(NS(=O)(=O)[C@H](C)[C@@H](O)c2cc3n(n2)CCCO3)nnc1-c1ccc(C)o1 (racemic) [Example 290.0] | 5
